Results reported in patent US20180282323A1, “Mesoionic imidazole derivatives as insecticides” (BAYER CROPSCIENCE AKTIENGESELLSCHAFT, priority 2015, published 2018).
Read-outs that look alike come from different tables or passages of the source.

Assays:
[1] = test system: Myzus persicae; assay: Myzus persicae spray test (bell pepper plants); assay type: in vivo; details: application rate 100 ppm, after 6 days
Experimental: Myzus persicae—Spray Test Solvent: 14 parts by weight of dimethylformamide Emulsifier: alkylaryl polyglycol ether
(§1) To produce a suitable active ingredient formulation, 1 part by weight of active ingredient is dissolved with the stated parts by weight of solvent and made up with water containing an emulsifier concentration of 1000 ppm until the desired concentration is attained. To produce further test concentrations, the formulation is diluted with emulsifier-containing water. If the addition of ammonium salts or/and penetrants is required, these are each added in a concentration of 1000 ppm to the formulation solution.
Bell pepper plants (Capsicum annuum) severely infested with the green peach aphid (Myzus persicae) are treated by spraying with the active ingredient formulation in the desired concentration.
After 6 days, the kill in % is determined. 100% means that all of the aphids have been killed; 0% means that none of the aphids have been killed.

[2] = test system: Myzus persicae; assay: Myzus persicae oral test; assay type: in vivo; details: application rate 20 ppm, oral uptake through parafilm, after 5 days; for pest or weed control at 20 ppm: Myzus persicae, 120 h, read-out: efficacy
Method in brief: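 Compound dissolved in acetone, diluted with water, then mixed into IPL41 insect medium with sugar in microtitre plates under parafilm. Mixed-population green peach aphids fed through the membrane; % mortality scored after 5 days (100% = all killed).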

[3] = test system: Tetranychus urticae; assay: Tetranychus urticae spray test, OP-resistant; assay type: in vivo; details: application rate 500 g/ha, bean leaf discs, all stages, after 6 days
Experimental: Tetranychus urticae—Spray Test, OP-Resistant Solvent: 78.0 parts by weight of acetone • • 1.5 parts by weight of dimethylformamide Emulsifier: alkylaryl polyglycol ether
as §1, with “water.” for “water. If the addition of ammonium salts or/and penetrants is required, these are each added in a concentration of 1000 ppm to the formulation solution.”
Discs of bean leaves (Phaseolus vulgaris) infested with all stages of the greenhouse red spider mite (Tetranychus urticae) are sprayed with an active ingredient formulation of the desired concentration.
After 6 days, the efficacy in % is determined. 100% means that all the spider mites have been killed; 0% means that no spider mites have been killed.

[4] = log P by HPLC on reversed-phase column (EEC directive 79/831 Annex V.A8); assay type: physicochemical; details: for log p: HPLC on reversed-phase column (footnote a); for log p a): HPLC on reversed-phase column
Method in brief: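 Determined per EEC directive 79/831 Annex V.A8 by HPLC on a reversed-phase C18 column at 43° C.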

[5] = test system: Lucilia cuprina; assay: Lucilia cuprina test; assay type: in vivo; details: application rate 100 ppm, L1 larvae, after 2 days
Experimental: Lucilia cuprina Test Solvent: dimethyl sulphoxide
(§2) To produce a suitable active ingredient formulation, 10 mg of active ingredient are mixed with 0.5 ml of dimethyl sulphoxide, and the concentrate is diluted with water to the desired concentration.
About 20 L1 larvae of the Australian sheep blowfly (Lucilia cuprina) are transferred into a test vessel containing minced horsemeat and the active ingredient formulation of the desired concentration.
After 2 days, the kill in % is determined. 100% means that all the larvae have been killed; 0% means that no larvae have been killed.

[6] = test system: Diabrotica balteata; assay: Diabrotica balteata spray test; assay type: in vivo; details: application rate 160 μg/well, wheat grains with beetle larvae, after 7 days
Method in brief: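 Compound in acetone/DMF with emulsifier water sprayed onto wheat seedlings germinated one day on agar, 5 grains per well. Each well then infested with 10-20 Diabrotica balteata larvae. Efficacy scored after 7 days: 100% = plant growth as uninfected control, 0% = no plants grown.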

[7] = test system: Musca domestica; assay: Musca domestica test; assay type: in vivo; details: application rate 100 ppm, adult houseflies, after 2 days
Experimental: Musca domestica Test Solvent: dimethyl sulphoxide
as §2
Vessels containing a sponge treated with sugar solution and the active ingredient formulation of the desired concentration are populated with 10 adult houseflies (Musca domestica).
After 2 days, the kill in % is determined. 100% means that all of the flies have been killed; 0% means that none of the flies have been killed.

[8] = test system: Myzus persicae; assay: Myzus persicae spray test (Chinese cabbage leaf discs); assay type: in vivo; details: application rate 500 g/ha, after 6 days
Method in brief: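 Active ingredient was formulated in acetone/DMF and diluted with water containing 1000 ppm emulsifier. Chinese cabbage leaf discs infested with all aphid stages were sprayed, and % kill was scored after 6 days (100% = all aphids dead).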

[9] = test system: Boophilus microplus; assay: Boophilus microplus injection test; assay type: in vivo; details: application rate 20 μg/animal, assessed after 7 days by laying of fertile eggs
Experimental: Boophilus microplus—Injection Test Solvent: dimethyl sulphoxide
To produce a suitable active ingredient formulation, 10 mg of active ingredient are mixed with 0.5 ml of solvent and the concentrate is diluted with solvent to the desired concentration.
1 μl of the active ingredient solution is injected into the abdomen of 5 engorged adult female cattle ticks (Boophilus microplus). The animals are transferred into dishes and kept in a climate-controlled room.
Efficacy is assessed after 7 days by laying of fertile eggs. Eggs which are not visibly fertile are stored in a climate-controlled cabinet until the larvae hatch after about 42 days. An efficacy of 100% means that none of the ticks has laid any fertile eggs; 0% means that all the eggs are fertile.

[10] = test system: Ctenocephalides felis; assay: Ctenocephalides felis in vitro contact test with adult cat fleas; assay type: in vivo; details: application rate 5 μg/cm^2, after 48 h, adult cat fleas dead or moribund
Experimental: Ctenocephalides felis—In Vitro Contact Tests with Adult Cat Fleas
For the coating of the test tubes, 9 mg of active ingredient are first dissolved in 1 ml of acetone p.a. and then diluted to the desired concentration with acetone p.a. 250 μl of the solution are distributed homogeneously on the inner walls and the base of a 25 ml test tube by turning and rocking on an orbital shaker (rocking rotation at 30 rpm for 2 h). With 900 ppm of active ingredient solution and internal surface area 44.7 cm^2, given homogeneous distribution, an area-based dose of 5 μg/cm^2 is achieved.
After the solvent has evaporated off, the tubes are populated with 5-10 adult cat fleas (Ctenocephalides felis), sealed with a perforated plastic lid and incubated in a horizontal position at room temperature and ambient humidity. After 48 h, efficacy is determined. To this end, the test tubes are stood upright and the fleas are knocked to the base of the tube. Fleas which remain motionless at the base or move in an uncoordinated manner are considered to be dead or moribund.
100% efficacy means that all the fleas were dead or moribund. 0% efficacy means that no fleas were harmed.

[11] = test system: Phaedon cochleariae; assay: Phaedon cochleariae spray test; assay type: in vivo; details: application rate 500 g/ha, Chinese cabbage leaf discs, larvae, after 7 days
Experimental: Phaedon cochleariae—Spray Test Solvent: 78.0 parts by weight of acetone • • 1.5 parts by weight of dimethylformamide Emulsifier: alkylaryl polyglycol ether
as §1, with “water.” for “water. If the addition of ammonium salts or/and penetrants is required, these are each added in a concentration of 1000 ppm to the formulation solution.”
Discs of Chinese cabbage leaves (Brassica pekinensis) are sprayed with an active ingredient formulation of the desired concentration and, after drying, populated with larvae of the mustard beetle (Phaedon cochleariae).
After 7 days, the efficacy in % is determined. 100% means that all the beetle larvae have been killed; 0% means that no beetle larvae have been killed.

[12] = test system: Meloidogyne incognita; assay: Meloidogyne incognita test; assay type: in vivo; details: application rate 20 ppm, formation of galls on lettuce after 14 days
Experimental: Meloidogyne incognita Test Solvent: 125.0 parts by weight of acetone
To produce a suitable preparation of active ingredient, 1 part by weight of active ingredient is mixed with the stated amount of solvent and the concentrate is diluted with water to the desired concentration.
Vessels are filled with sand, active ingredient solution, an egg/larvae suspension of the southern root-knot nematode (Meloidogyne incognita) and lettuce seeds. The lettuce seeds germinate and the plants develop. The galls develop on the roots.
After 14 days, the nematicidal efficacy in % is determined by the formation of galls. 100% means that no galls were found; 0% means that the number of galls on the treated plants corresponds to the untreated control.

Row | SMILES | efficacy (kill in %) [5] | efficacy [6] | efficacy [8] | efficacy [2] | log p [4] | efficacy [11] | also measured
1 | O=C(CCl)c1c([O-])n(Cc2cnc(Cl)s2)c2cccc[n+]12 [Example I-1-002, 3-(Chloroacetyl)-1-[(2-chloro-1,3-thiazol-5-yl)methyl]-1H-imidazo[1,2-a]pyridin-4-ium-2-olate] |  |  |  |  |  |  | efficacy (kill in %) [1]: 90%; pest or weed control at 20 ppm [2]: 100%; efficacy [3]: 90%; chromatographic logP [4]: 1.69; chromatographic logP ([4]; pH 2.7): 1.69
2 | COCC(=O)c1c([O-])n(Cc2cnc(Cl)s2)c2cccc[n+]12 [Example I-1-008, 1-[(2-Chloro-1,3-thiazol-5-yl)methyl]-3-(methoxyacetyl)-1H-imidazo[1,2-a]pyridin-4-ium-2-olate] | 90% | 100% | 100% |  |  |  | pest or weed control at 20 ppm [2]: 100%; efficacy (kill in %) [7]: 100%; chromatographic logP [4]: 1.23; chromatographic logP ([4]; pH 2.7): 1.23; efficacy [9]: 100%
3 | O=C(Cn1cncn1)c1c([O-])n(Cc2cnc(Cl)s2)c2cccc[n+]12 [Example I-1-014] |  |  |  | 100% | 1.1 |  | efficacy [3]: 90%
4 | O=C(COc1ccccc1)c1c([O-])n(Cc2cnc(Cl)s2)c2cccc[n+]12 [Example I-1-017] |  |  |  | 100% | 2.34 |  | efficacy [3]: 90%
5 | O=C(CCl)c1c([O-])n(Cc2cncnc2)c2cccc[n+]12 [Example I-1-019] |  |  |  |  | 0.77 |  | efficacy [3]: 90%
6 | CCOCC(=O)c1c([O-])n(Cc2cnc(Cl)s2)c2cccc[n+]12 [Example I-1-032] | 90% | 100% |  | 100% | 1.57 |  | efficacy (kill in %) [1]: 100%; efficacy (kill in %) [7]: 100%; efficacy [10]: 100%
7 | CCCOCC(=O)c1c([O-])n(Cc2cnc(Cl)s2)c2cccc[n+]12 [Example I-1-033] | 90% | 100% |  | 100% | 1.92 |  | efficacy (kill in %) [1]: 100%; efficacy (kill in %) [7]: 100%; efficacy [10]: 90%; efficacy [9]: 80%
8 | CSCC(=O)c1c([O-])n(Cc2cnc(Cl)s2)c2cccc[n+]12 [Example I-1-034] | 100% | 100% | 90% | 100% | 1.73 |  | efficacy (kill in %) [7]: 80%; efficacy [9]: 80%
9 | COCC(=O)c1c([O-])n(Cc2cnc(Cl)s2)c2c(C)ccc[n+]12 [Example I-1-082] |  | 100% | 100% | 100% | 1.46 | 100% | efficacy [10]: 100%
10 | CCOCC(=O)c1c([O-])n(Cc2cnc(Cl)s2)c2c(C)ccc[n+]12 [Example I-1-083] |  | 100% | 90% | 100% | 1.72 | 100% | 
11 | Cc1ccc[n+]2c(C(=O)Cn3ccc(Cl)n3)c([O-])n(Cc3cnc(Cl)s3)c12 [Example I-1-093] |  |  |  | 100% | 2.23 | 100% | 
12 | CCCOCC(=O)c1c([O-])n(Cc2cnc(Cl)s2)c2c(C)ccc[n+]12 [Example I-1-097] |  | 100% | 90% | 100% | 2.11 | 100% | 
13 | O=C(NC1CC1)c1c([O-])n(Cc2cnc(Cl)s2)c2cccc[n+]12 [Example I-1-111, 1-[(2-Chloro-1,3-thiazol-5-yl)methyl]-3-(cyclopropylcarbamoyl)-1H-imidazo[1,2-a]pyridin-4-ium-2-olate] | 100% | 100% | 100% |  |  |  | pest or weed control at 20 ppm [2]: 100%; efficacy (kill in %) [7]: 100%; chromatographic logP [4]: 1.63; chromatographic logP ([4]; pH 2.7): 1.63; efficacy [10]: 100%
14 | O=C(NCC(F)(F)F)c1c([O-])n(Cc2cnc(Cl)s2)c2cccc[n+]12 [Example I-1-137] | 95% | 100% |  | 100% | 2.08 |  | efficacy (kill in %) [1]: 95%; efficacy [3]: 90%
15 | O=C(NC1CC1)c1c([O-])n(Cc2ccc(Cl)nc2)c2cccc[n+]12 [Example I-1-154] | 95% | 80% |  | 100% | 1.59 | 100% | efficacy (kill in %) [1]: 100%
16 | COC(=O)c1c([O-])n(C(C)c2cnc(Cl)s2)c2cccc[n+]12 (centres unmarked) [Example I-1-262] |  |  |  |  |  | 83% | log p a) [4]: 1.45
17 | Cc1ccc[n+]2c(C(=O)Nc3c(Cl)cccc3Cl)c([O-])n(Cc3cnc(Cl)s3)c12 [Example I-1-277] |  | 100% |  | 100% |  | 83% | nematicidal efficacy [12]: 90%; log p a) [4]: 3.11
